In patent US8969303B2, “Tocotrienol esters” (First Tech International Limited, priority 2010, dated 2015):

Experiments:
[1] = Water solubility in phosphate buffer; type: physicochemical; conditions: phosphate buffer pH 7.4, 25° C.
Procedure: About 5.6 mg of each of α-tocotrienol and Compound 6 were added to 3 mL of phosphate buffer (pH 7.4) in amber vials. Tested solutions were maintained shaking under at 25° C. for 24 h in a constant-temperature water bath. Each solution was then centrifuged at 5,000 rpm for 10 min before collecting samples from the clear supernatant at 0, 1, 2, 4, 6, and 24 h. Each compound concentration in the aspirates was determined by HPLC. […] The solubility of α-tocotrienol maleate (Compound 6) was nearly 1000 fold that of its parent α-tocotrienol.
A Shimadzu HPLC system (Columbia, Md.) was used for quantification of α-tocotrienol and Compound 6. This system is composed of SIL 20-AHT autosampler, SPD-20A UV/VIS detector, and LC-20AB pump connected to a Dgu-20A3 degasser. Data acquisition was achieved by LC Solution software version 1.22 SP1 Shimadzu. The following chromatographic conditions were used: […] (250×4.6 mm id; Phenomenex, Torrance, Calif.), flow rate was adjusted to 1.0 mL/min, and λ was set at 295 nm. For α-tocotrienol solubility and stability studies, an isocratic elution with MeOH-EtOH—CH3CN (40:30:30, v/v/v) as mobile phase for 10 min. α-tocotrienol was eluted at 6.7 min. […] Each compound was quantified using its calibration curve for compounds peak area versus its concentration.

[2] = Stability in phosphate buffer; type: physicochemical; conditions: 24 h, 500 μg/mL, pH 7.4
Procedure: The stability of each of α-tocotrienol and Compound 6 was studied at 37° C. in phosphate buffer (pH 7.4). In amber vials, 500 μg/mL of each compound were dissolved in the buffer and the solution was incubated at 37° C. At interval times (0, 0.5, 1, 2, 4, 6, and 24 h), 50 μL it samples were collected and equal volumes of methanol were added to each sample followed by HPLC analysis.
(§1) A Shimadzu HPLC system (Columbia, Md.) was used for quantification of α-tocotrienol and Compound 6. This system is composed of SIL 20-AHT autosampler, SPD-20A UV/VIS detector, and LC-20AB pump connected to a Dgu-20A3 degasser. Data acquisition was achieved by LC Solution software version 1.22 SP1 Shimadzu. The following chromatographic conditions were used: […] (250×4.6 mm id; Phenomenex, Torrance, Calif.), flow rate was adjusted to 1.0 mL/min, and λ was set at 295 nm. For α-tocotrienol solubility and stability studies, an isocratic elution with MeOH-EtOH—CH3CN (40:30:30, v/v/v) as mobile phase for 10 min. α-tocotrienol was eluted at 6.7 min. For the simultaneous separation of α-tocotrienol and Compound 6 the following gradient elution was also used starting with H2O— MeOH—N(Et)3 (10:90:0.05, v/v/v) for 5 min, followed by isocratic MeOH—N(Et)3 (100:0.05, v/v) for another 10 min. The retention times were 4 and 14.1 for Compound 6 and α-tocotrienol, respectively. Standard curves for α-tocotrienol and Compound 6 in MeOH were prepared in the range of 0.4-50 μg/mL and 1-1000 μg/mL, respectively. Each compound was quantified using its calibration curve for compounds peak area versus its concentration.

[3] = tested on: +SA mammary epithelial cells; test: Antiproliferative MTT assay on +SA mammary epithelial cells; type: cell-based, mouse; conditions: malignant mice +SA mammary cells, 24 hour treatment, MTT
From the text: +SA mammary epithelial cell lines were serially passaged at subconfluent cell density. The +SA cell line was derived from an adenocarcinoma that developed spontaneously in a BALB/c female mouse. That cell line is discussed in more detail in Anderson, L. W., Danielson, K. G., Hosick, H. L. Eur. J. Cancer Clin. Oncol. 1981, 17, 1001-1008, Danielson, K G., Anderson, L. W., Hosick, H. L. Cancer Res. 1980, 40, 1812-1819.31, and Anderson, L. W., Danielson, K. G., Hosick, H. L. In Vitro. 1979, 15, 841-843. Cell culture conditions were similar to those described in detail in Shah, S. J., Gapor, A., Sylvester, P. W. Nutr. Cancer. 2003, 45, 236-246, Shah, S. J., Sylvester, P. W. Biochem. Cell. Biol. 2005, 83, 86-95, Wali, V. B., Sylvester, P. W. Lipids, 2007, 42, 1113-1123, and Wali, V. B., Bachawal, S. V., Sylvester, P. W. Exp. Biol. Med. (Maywood) 2009, 234, 639-650. Briefly, +SA cells were maintained in serum-free defined medium consisting of Dulbecco's modified Eagle's medium (DMEM)/F12 containing 5 mg/ml bovine serum albumin (BSA), […], 100 U/ml soybean trypsin inhibitor, 100 U/ml penicillin, 0.1 mg/ml streptomycin, […], and 10 ng/ml epidermal growth factor. For subculturing, cells were rinsed twice with sterile Ca^2+ and Mg^2+-free phosphate buffered saline (PBS) and incubated in 0.05% trypsin containing 0.025% EDTA in PBS for 5 minutes at 37° C. The released cells were centrifuged, resuspended in serum-free defined media and counted using a hemocytometer. A stock solution of the Compounds was prepared in DMSO. Once dissolved, this solution was added to a small volume of sterile 10% BSA in water and incubated overnight at 37° C. This solution conjugated to BSA was used to prepare various concentrations (0-40 μM) of tocotrienol analogs. DMSO was added to all treatment media such that the final DMSO concentration was the same in all treatment groups within a given experiment and was always less than 0.1%. For cytotoxicity studies, cells were seeded at a density of 5×10^4 cells/well (6 wells/group) in 24-well culture plates and allowed to grow in serum-free control defined media. After a 3 day incubation period (approximately 70% confluency), cells were divided equally into various treatment groups and exposed to their respective treatments for a 24 hour incubation period. Following the 24 hour treatment period, cell viability was measured using the MTT assay. All materials were purchased from Sigma Chemical Company (St. Louis, Mo.) unless otherwise stated.
+SA mammary epithelial cell viable number was determined by the 3-(4,5-dimethylthiazol-2-yl)-2,5-diphenyl tetrazolium bromide (MTT) colorimetric assay. On the day of assay, treatment medium was replaced with fresh growth medium containing 0.42 mg/ml MTT, and the cells in 24-well plates were incubated at 37° C. for 4 hours. Afterward, the medium was removed, and the MTT crystals were dissolved in isopropyl alcohol (1 ml/well). The optical density of each sample was read at 570 nm on a microplate reader (SpectraCount, Packard BioScience Company), against a blank prepared from cell-free cultures. The number of cells/well was calculated against a standard curve prepared by plating various concentrations of cells, as determined by hemocytometer, at the start of each experiment.
Differences among the various treatment groups in +SA cell cytotoxic studies were determined by analysis of variance (ANOVA) followed by Dunnett's t-test. The difference of P<0.05 was considered to be statistically significant as compared with vehicle-treated controls. Linear regression analysis of treatment effects on viable cell number in growth and cytotoxicity studies was used to determine the 50% growth inhibition concentration (IC50) for individual treatments.

[4] = Stability in rat plasma; type: in vitro ADME; conditions: 37° C.
Procedure: The stability of each of α-tocotrienol and Compound 6 was studied at 37° C. in rat plasma. In amber vials, 50 μg/mL of each Compound were dissolved in the plasma. The solution was incubated at 37° C., and at interval times (0, 0.5, 1, 2, 4, 6, and 24 h), 50 μL samples were taken and mixed with 100 μL of methanol followed by centrifugation at 14,000 rpm for 10 min. Each supernatant was analyzed by HPLC. In rat plasma, Compound 6 concentration was 100% stable over the first 3 h. Its concentration then started to decrease at the […] to become 81% and 77% of the initial concentration, respectively. After 24 hours, only 43% of the initial concentration of Compound 6 was detectable. The slow rate of hydrolysis of Compound 6 compared to α-tocotrienol may bode well for expected enhanced metabolic stability.
as §1

CC(C)=CCC/C(C)=C/CC/C(C)=C/CC[C@]1(C)CCc2c(C)c(OC(=O)/C=C\C(=O)O)c(C)c(C)c2O1 [Compound 6, (Z)-4-oxo-4-((R)-2,5,7,8-tetramethyl-2-((3E,7E)-4,8,12-trimethyltrideca-3,7,11-trienyl)chroman-6-yloxy)but-2-enoic acid]
solubility relative to parent α-tocotrienol [1]: ~1000 fold
chemical stability relative to the zero time concentration [2]: 100%
IC50 ([3]; Mus musculus, Epithelial cell, 24 h): 510 nM
IC50 [3]: 520 nM
% of the initial concentration in rat plasma ([4]; 4th hour): 81%
% of the initial concentration in rat plasma ([4]; 5th hour): 77%
% of the initial concentration in rat plasma ([4]; after 24 hours): 43%
concentration stable in rat plasma ([4]; over the first 3 h): 100%
